Measured values published in US20220016048A1, “CANNABIDIOL-TYPE CANNABINOID COMPOUND” (GW Research Limited, priority 2018, published 2022).

Legend:
[1] = test system: PCP-induced social behaviour deficit in female rats; conditions: background statement; cited from earlier work
[2] = test system: sub-chronic PCP-induced deficit in social behaviour in female Lister-Hooded rats; assay: social interaction test in sub-chronic PCP treated rats; type: in vivo, rat
Description: The aim of the current study was to investigate the ability of CBD-C4 (3, 10 & 30 mg/kg IP; 60 min pre-treatment (ptt)) in comparison with risperidone (an atypical antipsychotic; 0.1 mg/kg IP; 60 min pre-treatment), to antagonise a sub-chronic PCP (scPCP; 2 mg/kg IP; twice daily for 7-days; 7 day wash out)-induced deficit in social behaviour in female Lister-Hooded rats.
180 female Lister Hooded rats were used for this experiment, of which 90 were used for the drug study and 90 weight-matched untreated conspecifics were used as the companion rat, and their behaviour was not scored.
Rats were housed in groups of 5 under standard laboratory conditions under a 12-hr light: dark cycle, lights on at 0700 hr. Testing was carried out in the light phase. These studies were carried out in accordance with the Animals Scientific Procedures Act (UK, 1986).
CBD-C4 was used at doses of (3, 10, 30 mg/kg, i.p.) and risperidone was used at a dose of 0.1 mg/kg, i.p.
Rats were randomly assigned to two treatment groups and treated with vehicle, n=15 (distilled water, i.p.) or PCP, n=75 (2 mg/kg, i.p. twice daily for 7-days). This was followed by a 7-day wash out period before the rats were tested following acute treatment with CBD-C4, risperidone or vehicle.
Risperidone (0.1 mg/kg) was dissolved in a minimum volume of acetic acid, made up to volume with distilled water and pH adjusted to 6 with 0.1M NaOH and administered via the i.p. route in a volume of 1 ml/kg, 60 min prior to testing.
CBD-C4 (3, 10 & 30 mg/kg) was dissolved in 2:1:17 (Ethanol:Cremophor EL:Saline 0.9%). CBD-C4 was administered via the i.p. route in a volume of 5 ml/kg, 60 min prior to testing.
The social interaction test was performed in an open-field comprising a square box made of Plexiglas (52×52×31 cm) placed 27 cm above the floor on a moveable trolley. The floor of the box was white with black gridlines forming 9 identical squares on it. All other walls were black. A video camera connected to a video recorder and monitor was positioned above the box. The object used for the test consists of a heavy structure made of metal that cannot be displaced by the animals.
After a 7 day drug-free period, the rats were habituated to the test environment and arena prior to the test day. Habituation consisted of placing all rats from one cage together in the empty test arena for one hour for three days including the day before the test day.
Pairs of rats, weight matched (15-20 g) and unfamiliar to each other, receiving either no treatment (n=90 “conspecific” rats) or different treatments (PCP; n=15 “tested” rats, Vehicle; n=15 “tested” rats, or PCP+drug; n=60 “tested” rats) were placed in the test arena together for 10 minutes and behavior assessed as described below.
An inanimate object such as an unopened drink can was also placed in the centre of the arena to measure any differences in interaction of the test animal with an unfamiliar animal as opposed to an unfamiliar object. After each 10-minute trial, the object and arena were cleaned with 10% alcohol in an attempt to remove traces of any olfactory cues. All testing was carried out under standard room illumination levels (70 cd/m^2).
Behaviour in both trials was recorded on video for subsequent blind scoring. A behavioural scoring software program (Hindsight, Scientific programming services) was used to score the following parameters:
Investigative sniffing behaviour: sniffing the conspecific's snout or parts of the body including the anogenital region.
Following: rat moves after the conspecific i.e. a vehicle treated rat of the same species, around the arena.
Avoidances: actively turning away when approached by the conspecific animal.
Investigation of object: exploration of object placed in centre of the arena.
Locomotor activity is recorded by counting the total number of sectors (i.e. lines) crossed by the test rat.
All data were assessed for normality using D'Agostino and Pearson normality test. […]

[3] = test system: mouse model of seizure; assay: maximal electroshock (MES) test in the mouse; type: in vivo; conditions: 2 mg/kg i.p. 30 minutes before MES; p<0.001
Description: Mice were administered MES (50 mA, rectangular current: 0.6 ms pulse width, 0.4 s duration, 50 Hz) via corneal electrodes connected to a constant current shock generator (Ugo Basile: type 7801). The number of tonic convulsions was recorded.
Twelve mice were studied per group. The test was performed blind.
The test substance, CBD-C4, was evaluated at 5 doses (3, 10, 30, 100 and 200 mg/kg), administered i.p. 60 minutes before MES, and compared with a vehicle control group (administered under the same experimental conditions).
Diazepam (2 mg/kg i.p.), administered i.p. 30 minutes before MES, was used as a reference substance and was compared with a vehicle group (administered i.p. 60 minutes before MES).
Data was analysed by comparing treated groups with the appropriate vehicle control using Fisher's Exact Probability tests.

[4] = 0.1 mg/kg i.p., 60 min pre-treatment
[5] = CBD-C4 3, 10, 30 mg/kg, risperidone 0.1 mg/kg i.p., data not shown

In the case of `O=C(CCCN1CCC(O)(c2ccc(Cl)cc2)CC1)c1ccc(F)cc1` [haloperidol], the “attenuation of PCP-induced social behaviour deficit” value (“attenuation” for short) [1] is listed as “not attenuated”.
For `O=C1CCc2ccc(OCCCCN3CCN(c4cccc(Cl)c4Cl)CC3)cc2N1` [aripiprazole], the “attenuation” value [1] is listed as “attenuated”.
In the case of `O=C1Cc2cc(CCN3CCN(c4nsc5ccccc45)CC3)c(Cl)cc2N1` [ziprasidone], the “attenuation” value [1] is given as “attenuated”.
For `CNCCC(Oc1ccc(C(F)(F)F)cc1)c1ccccc1` (stereo not shown) [fluoxetine], the “attenuation” value [1] is listed as “not attenuated”.
For `c1ccc(C2(N3CCCCC3)CCCCC2)cc1` [PCP, Phencyclidine], the “sniffing behaviour (scPCP vs vehicle)” value ([2]; PCP 2 mg/kg i.p. twice daily 7 days, 7-day wash out, P<0.001) was “significantly reduced”, the “following behaviour (scPCP vs vehicle)” value ([2]; PCP 2 mg/kg i.p. twice daily 7 days, 7-day wash out, P<0.01) was “significantly reduced” and the “increase in the duration of avoidance activity (scPCP vs vehicle)” value ([2]; PCP 2 mg/kg i.p. twice daily 7 days, 7-day wash out, P=0.058) was “just failed to reach statistical significance”.
In the case of `Cc1nc2n(c(=O)c1CCN1CCC(c3noc4cc(F)ccc34)CC1)CCCC2` [risperidone], the “avoidance behaviour compared to the scPCP-treated group” value [2, 4] is reported as “significantly decreased”, the following behaviour [2, 4] is reported as “no significant effect” and the sniffing behaviour [2, 4] is reported as “no significant effect”. The “line crossings (locomotor activity)” value [2, 5] was “no significant effect” and the object exploration [2, 5] was “no significant effect”.
For `CN1C(=O)CN=C(c2ccccc2)c2cc(Cl)ccc21` [diazepam, Diazepam, reference compound], the “decrease in the number of tonic convulsions, as compared with vehicle controls” value [3] was −75%.
